Results from patent US10562900B2 (Shanghai Haihe Pharmaceutical Co., Ltd., priority 2014, dated 2020).

Tests used:
FGFR1 = FGFR1 (Homo sapiens (Human), UniProt P11362); assay: FGFR1 kinase activity at the molecular level (ELISA, Poly(Glu,Tyr) 4:1 substrate); format: biochemical; settings: kinase domain recombinant protein, 5 μM ATP
Experimental: (§1) 100 μL/well of 2 mg/mL OPD developing solution (diluted with 0.1M citric acid-sodium citrate buffer containing 0.03% H2O2 (pH=5.4)), and reacted in dark for 1-10 minutes at 25° C.

FGFR2 = FGFR2 (Homo sapiens (Human), UniProt P21802); assay: FGFR2 kinase activity at the molecular level (ELISA, Poly(Glu,Tyr) 4:1 substrate); format: biochemical; settings: kinase domain recombinant protein, 5 μM ATP
FGFR2, sequence (P21802 481-770): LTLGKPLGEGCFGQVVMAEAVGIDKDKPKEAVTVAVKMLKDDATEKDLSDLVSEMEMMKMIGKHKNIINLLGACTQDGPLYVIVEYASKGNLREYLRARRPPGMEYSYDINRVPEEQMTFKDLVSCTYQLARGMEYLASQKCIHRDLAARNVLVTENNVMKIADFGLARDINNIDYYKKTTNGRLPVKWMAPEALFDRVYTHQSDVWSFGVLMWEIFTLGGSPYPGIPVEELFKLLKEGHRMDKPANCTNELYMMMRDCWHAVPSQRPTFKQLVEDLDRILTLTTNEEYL
Experimental: as §1

FGFR1, sequence (P11362 478-767): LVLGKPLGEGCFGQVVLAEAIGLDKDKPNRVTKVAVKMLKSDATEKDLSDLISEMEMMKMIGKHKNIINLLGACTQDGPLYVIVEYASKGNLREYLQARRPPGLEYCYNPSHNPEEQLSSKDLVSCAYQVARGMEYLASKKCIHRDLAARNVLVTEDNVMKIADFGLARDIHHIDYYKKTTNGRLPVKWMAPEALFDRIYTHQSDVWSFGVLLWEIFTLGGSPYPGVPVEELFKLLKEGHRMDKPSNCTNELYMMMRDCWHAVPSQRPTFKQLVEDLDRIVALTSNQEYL

Row | SMILES | IC50 (FGFR1) | IC50 (FGFR2)
1 | COc1cc(OC)c(F)c(-c2ccc3c(NC(=O)c4ccc(N5CCCN(C)CC5)cc4)n[nH]c3c2)c1F [Example 95, N-(6-(2,6-difluoro-3,5-dimethoxyphenyl)-1H-indazole-3-yl)-4-(4-methyl-1,4-diazepane-1-yl)benzamide] | < 100 nM | < 100 nM
2 | COc1cc(OC)c(F)c(-c2ccc3c(NC(=O)c4ccc(N5CCN(C)CC5)cc4)n[nH]c3n2)c1F [Example 48, N-(6-(2,6-difluoro-3,5-dimethoxyphenyl)-1H-pyrazolo [3,4-b]pyridine-3-yl)-4-(4-methylpiperazine-1-yl)benzamide] | < 100 nM | < 100 nM
3 | COc1cc(OC)c(Cl)c(-c2ccc3c(NC(=O)c4ccc(N5CCNC(C)(C)C5)c(F)c4)n[nH]c3n2)c1Cl [Example 91, N-(6-(2,6-dichloro-3,5-dimethoxyphenyl)-1H-pyrazolo [3,4-b]pyridin-3-yl)-4-(3,3-dimethylpiperazine-1-yl)-3-fluorobenzamide] | < 100 nM | < 100 nM
4 | COCCN1CCN(c2ccc(C(=O)Nc3n[nH]c4nc(-c5c(Cl)c(OC)cc(OC)c5Cl)ccc34)cc2)CC1 [Example 67] | < 100 nM | < 100 nM
5 | COc1cc(OC)c(Cl)c(-c2ccc3c(NC(=O)c4ccc(N5CCN(C6CC6)CC5)nc4)n[nH]c3n2)c1Cl [Example 88, 6-(4-cyclopropylpiperazine-1-yl)-N-(6-(2,6-dichloro-3,5-dimethoxyphenyl)-1H-pyrazolo [3,4-b]pyridin-3-yl)nicotinamide] | < 100 nM | < 100 nM
6 | COc1cc(OC)c(Cl)c(-c2ccc3c(NC(=O)c4ccc(N5CCNC(C)(C)C5)cc4)n[nH]c3n2)c1Cl [Example 72] | < 100 nM | < 100 nM
7 | COc1cc(OC)c(Cl)c(-c2ccc3c(NC(=O)c4ccc(N5CCN(C(C)=O)CC5)cc4)n[nH]c3c2)c1Cl [Example 36, 4-(4-acetylpiperazine-1-yl)-N-(6-(2,6-dichloro-3,5-dimethoxyphenyl)-1H-indazole-3-yl)benzamide] | < 100 nM | < 100 nM
8 | COc1cc(OC)c(Cl)c(-c2ccc3c(NC(=O)c4ccc(N5CCC(N(C)C)CC5)cc4)n[nH]c3c2)c1Cl [Example 37, N-(6-(2,6-dichloro-3,5-dimethoxyphenyl)-1H-indazole-3-yl)-4-(4-(dimethylamino)piperidine-1-yl)benzamide] | < 100 nM | < 100 nM
9 | COc1cc(C(=O)Nc2n[nH]c3nc(-c4c(Cl)c(OC)cc(OC)c4Cl)ccc23)ccc1N1CCNC(C)(C)C1 [Example 101, N-(6-(2,6-dichloro-3,5-dimethoxyphenyl)-1H-pyrazolo [3,4-b]pyridin-3-yl)-4-(3,3-dimethylpiperazine-1-yl)-3-methoxybenzamide] | < 100 nM | < 100 nM
10 | COc1cc(OC)c(F)c(-c2ccc3c(NC(=O)c4cnc(N5CCN(C)CC5)nc4)n[nH]c3c2)c1F [Example 96, N-(6-(2,6-difluoro-3,5-dimethoxyphenyl)-1H-indazole-3-yl)-2-(4-methylpiperazine-1-yl) pyrimidine-5-formamide] | < 100 nM | < 100 nM
11 | COc1cc(OC)c(F)c(-c2ccc3c(NC(=O)c4ccc(N5CCN(C)CC5)cc4)n[nH]c3c2)c1F [Example 45, N-(6-(2,6-difluoro-3,5-dimethoxyphenyl)-1H-indazole-3-yl)-4-(4-methylpiperazine-1-yl)benzamide] | < 100 nM | < 100 nM
12 | CCN1CCN(c2ccc(C(=O)Nc3n[nH]c4cc(-c5c(F)c(OC)cc(OC)c5F)ccc34)cc2)CC1 [Example 47, N-(6-(2,6-difluoro-3,5-dimethoxyphenyl)-1H-indazole-3-yl)-4-(4-ethylpiperazine-1-yl)benzamide] | < 100 nM | < 100 nM
13 | COc1cc(OC)c(Cl)c(-c2ncc3c(NC(=O)c4ccc(N5CCN(C)CC5)cc4)n[nH]c3n2)c1Cl [Example 83] | < 100 nM | < 100 nM
14 | COc1cc(OC)c(Cl)c(-c2ccc3c(NC(=O)c4ccc(N5C[C@@H](C)N[C@@H](C)C5)cc4)n[nH]c3n2)c1 [Example 66] | < 100 nM | < 100 nM
15 | COc1cc(OC)c(Cl)c(-c2ccc3c(NC(=O)c4ccc(N5CCNC(C)(C)C5)cc4)n[nH]c3c2)c1Cl [Example 22, N-(6-(2,6-dichloro-3,5-dimethoxyphenyl)-1H-indazole-3-yl)-4-(3,3-dimethyl-1-yl)benzamide] | < 100 nM | < 100 nM
16 | COc1cc(OC)c(Cl)c(-c2ccc3c(NC(=O)c4ccc(N5CCNCC5)cc4)n[nH]c3c2)c1Cl [Example 25, N-(6-(2,6-dichloro-3,5-dimethoxyphenyl)-1H-indazole-3-yl)-4-(piperazine-1-yl)benzamide] | < 100 nM | < 100 nM
17 | COc1cc(OC)c(Cl)c(-c2ccc3c(NC(=O)c4ccc(N5CCN(C(=O)C(C)(C)C)CC5)cc4)n[nH]c3c2)c1Cl [Example 30, N-(6-(2,6-dichloro-3,5-dimethoxyphenyl)-1H-indazole-3-yl)-4-(4-pivaloylpiperazine-1-yl)benzamide] | < 100 nM | < 100 nM

Row | SMILES | IC50 (FGFR1) | IC50 (FGFR2)
18 | COc1cc(OC)c(Cl)c(-c2ccc3c(NC(=O)c4ccc(N5CCNC(C)(C)C5)nc4)n[nH]c3n2)c1Cl [Example 87, N-(6-(2,6-dichloro-3,5-dimethoxyphenyl)-1H-pyrazolo [3,4-b]pyridin-3-yl)-6-(3,3-dimethylpiperazine-1-yl)nicotinamide] | < 100 nM | < 100 nM
19 | CCN1CCN(c2ccc(C(=O)Nc3n[nH]c4nc(-c5c(Cl)c(OC)cc(OC)c5Cl)ccc34)cc2)CC1 [Example 65, N-(6-(2,6-dichloro-3,5-dimethoxyphenyl)-1H-pyrazolo [3,4-b]pyridin-3-yl)-4-(4-ethylpiperazine-1-yl)benzamide] | < 100 nM | < 100 nM
20 | COc1cc(OC)c(Cl)c(-c2ccc3c(NC(=O)c4cccc(N5CCN(C)CC5)c4)n[nH]c3c2)c1Cl [Example 23, N-(6-(2,6-dichloro-3,5-dimethoxyphenyl)-1H-indazole-3-yl)-3-(4-methyl-1-yl)benzamide] | < 100 nM | < 100 nM
21 | COc1cc(OC)c(Cl)c(-c2ccc3c(NC(=O)c4ccc(N5C[C@@H](C)N[C@@H](C)C5)cn4)n[nH]c3c2)c1Cl [Example 21, N-(6-(2,6-dichloro-3,5-dimethoxyphenyl)-1H-indazole-3-yl)-5-((3R,5S)-3,5-dimethyl-1-yl)pyridine amide] | < 100 nM | < 100 nM
22 | COc1cc(OC)c(Cl)c(-c2ccc3c(NC(=O)c4ccc(N5C[C@@H](C)N(C)[C@@H](C)C5)cc4)n[nH]c3n2)c1Cl [Example 90] | < 100 nM | < 100 nM
23 | COc1cc(OC)c(F)c(-c2ccc3c(NC(=O)c4ccc(N5CCC(N(C)C)C5)cc4)n[nH]c3c2)c1F (centres unmarked) [Example 98, N-(6-(2,6-difluoro-3,5-dimethoxyphenyl)-1H-indazole-3-yl)-4-(3-(dimethylamino)pyrrolidine-1-yl)benzamide] | < 100 nM | < 100 nM
24 | COc1cc(OC)c(Cl)c(-c2ccc3c(NC(=O)c4ccc(N5CCN(C(C)C)CC5)cc4)n[nH]c3c2)c1Cl [Example 24, N-(6-(2,6-dichloro-3,5-dimethoxyphenyl)-1H-indazole-3-yl)-4-(4-isopropyl-1-yl)benzamide] | < 100 nM | < 100 nM
25 | COc1cc(OC)c(Cl)c(-c2ccc3c(NC(=O)c4ccc(CN(C)C)cc4)n[nH]c3c2)c1Cl [Example 34, N-(6-(2,6-dichloro-3,5-dimethoxyphenyl)-1H-indazole-3-yl)-4-((dimethylamino)methyl)benzamide] | < 100 nM | < 100 nM
26 | COc1cc(OC)c(Cl)c(-c2ccc3c(NC(=O)c4ccc(N5CC(C)(C)NC(C)(C)C5)cc4)n[nH]c3n2)c1Cl [Example 99] | < 100 nM | < 100 nM
27 | COc1cc(OC)c(Cl)c(-c2ccc3c(NC(=O)c4ccc(CCC(=O)N(C)C)cc4)n[nH]c3c2)c1Cl [Example 33, N-(6-(2,6-dichloro-3,5-dimethoxyphenyl)-1H-indazole-3-yl)-4-(3-(dimethylamino)-3-oxopropyl)benzamide] | < 100 nM | < 100 nM
28 | COc1cc(OC)c(Cl)c(-c2ccc3c(NC(=O)c4ccc(N5CCN(CCO)CC5)cc4)n[nH]c3c2)c1Cl [Example 27, N-(6-(2,6-dichloro-3,5-dimethoxyphenyl)-1H-indazole-3-yl)-4-(4-(2-hydroxyethyl)piperazinyl)benzamide] | < 100 nM | < 100 nM
29 | COc1cc(OC)c(F)c(-c2ccc3c(NC(=O)c4ccc(N5C[C@@H](C)N[C@@H](C)C5)cc4)n[nH]c3c2)c1 [Example 55] | < 100 nM | < 100 nM
30 | COc1cc(OC)c(F)c(-c2ccc3c(NC(=O)c4ccc(N5CCCCC5)cc4)n[nH]c3c2)c1F [Example 93, N-(6-(2,6-difluoro-3,5-dimethoxyphenyl)-1H-indazole-3-yl)-4-(piperidine-1-yl)benzamide] | < 100 nM | < 100 nM
31 | COc1cc(OC)c(Cl)c(-c2ccc3c(NC(=O)c4ccc(N5CCN(C6CC6)CC5)cc4)n[nH]c3n2)c1Cl [Example 89] | < 100 nM | < 100 nM
32 | COc1cc(C(=O)Nc2n[nH]c3cc(-c4c(F)c(OC)cc(OC)c4F)ccc23)ccc1N1CCNC(C)(C)C1 [Example 97, N-(6-(2,6-difluoro-3,5-dimethoxyphenyl)-1H-indazole-3-yl)-4-(3,3-dimethylpiperazine-1-yl)-3-methoxybenzamide] | < 100 nM | < 100 nM
33 | COc1cc(OC)c(Cl)c(-c2ccc3c(NC(=O)c4ccc(N5CCOCC5)cc4)n[nH]c3n2)c1Cl [Example 70, N-(6-(2,6-dichloro-3,5-dimethoxyphenyl)-1H-pyrazolo [3,4-b]pyridin-3-yl)-4-morpholino benzamide] | < 100 nM | < 100 nM
34 | COc1cc(OC)c(Cl)c(-c2ccc3c(NC(=O)c4ccc(N5CC6(CNC6)C5)cc4)n[nH]c3n2)c1Cl [Example 73, N-(6-(2,6-dichloro-3,5-dimethoxyphenyl)-1H-pyrazolo [3,4-b]pyridin-3-yl)-4-(2,6-diazaspiro [3.3]heptane-2-yl)benzamide] | < 100 nM | < 100 nM
